Data published in patent US20020058048A1, “TOPICAL CAPSAICIN PREPARATION” (priority 1998, published 2002).
Where “and” joins values, the source holds several entries; their conditions need not be identical. Identical values can stand only once.

Tests used:
cornea of rats = assay: Eye-wiping reflex caused by capsaicin applied to the cornea (eye-wiping method of Jancso); format: in vivo, rat; settings: for Number of wiping, Second: challenge with 0.1% capsaicin solution without surfactant 2 hours after pretreatment with 0.1% capsaicin
Source text: 2. The effect of polyoxyethylene (60) hydrogenated castor oil on the eye-wiping reflex caused by capsaicin and the desensitization to chemical stimuli was studied according to the eye-wiping method reported by Jancso N. et al., in “Direct evidence for neurogenic inflammation and its prevention by denervation and by pretreatment with capsaicin”, Br. J. Phamac. Chemother. 31: 138-151, 1967.
When one drop of 0.1% capsaicin solution was applied to the cornea of rats, the animal immediately began to wipe the cornea with front paws and continued the wiping for about 1 minute.
See, Table 2. […] See, Table 3.
4. The effect of various surfactants on the desensitization of sensory nerves by 0.1% capsaicin was evaluated using the procedure of Test 2.

hind-limb of rats = assay: Withdrawal latency to thermal stimuli (42° C. water bath) of hind-limb in rats during sensitization by capsaicin; format: in vivo, rat; settings: 0.1% capsaicin solution; for Withdrawal latency time, One hour after appln.: 42° C. water bath; for Withdrawal latency time, Before appln.: baseline before application
Procedure: 1. 0.1% capsaicin solutions containing varying amount of polyoxyethylene (60) hydrogenated castor oil were prepared by dissolving 0.1 g of capsaicin and 0, 3, 9 or 18g of the surfactant in 26.4 ml of ethanol and then diluting with distilled water q.s. to make a total volume of 100 ml.
Each of 0.1% capsaicin solution thus prepared was applied to the hind-limb of rats. One hour after the application, the limb was placed in a water bath warmed at 42° C. and the length of time (in seconds) elapsed until when the rat withdrew the treated limb from the water bath was determined. […]

[1] = polyoxyethylene (60) hydrogenated castor oil 0%
[2] = polyoxyethylene (60) hydrogenated castor oil 3%
[3] = polyoxyethylene (60) hydrogenated castor oil 9%
[4] = polyoxyethylene (60) hydrogenated castor oil 18%

`COc1cc(CNC(=O)CCCC/C=C/C(C)C)ccc1O` [capsaicin] was tested, and the “Number of wiping, Second” value (cornea of rats; surfactant 0%) was “significantly reduced and 9.7 ± 1.6”, the “Number of wiping, Second” value (cornea of rats; surfactant 3%) was “significantly reduced and 11.5 ± 0.9” and the “Number of wiping, Second” value (cornea of rats; surfactant 9%) was “significantly reduced and 13 ± 0.7”. The “Number of wiping, Second” value (cornea of rats; surfactant 18%) was “significantly reduced and 11.7 ± 0.6”, the “Duration of wiping of the cornea with front paws” value (cornea of rats; one drop applied to the cornea of rats) was “about 1 minute” and the “Number of wiping, First” value (cornea of rats; pretreatment drop of 0.1% capsaicin solution with surfactant 0%) was 21.5 ± 1.6. The “Number of wiping, First” value (cornea of rats; pretreatment drop of 0.1% capsaicin solution with surfactant 3%) was “not virtually affected and 24 ± 2.1”, the “Number of wiping, First” value (cornea of rats; pretreatment drop of 0.1% capsaicin solution with surfactant 9%) was “not virtually affected and 23.5 ± 1.1” and the “Number of wiping, First” value (cornea of rats; pretreatment drop of 0.1% capsaicin solution with surfactant 18%) was “not virtually affected and 22 ± 1.4”. For the same compound, the “Withdrawal latency time, One hour after appln.” value (hind-limb of rats; [1]) was “remarkably shortened and 2.45 ± 0.32 sec”, the “Withdrawal latency time, Before appln.” value (hind-limb of rats; [1]) was 30 ± 0 s and the “Withdrawal latency time, One hour after appln.” value (hind-limb of rats; [2]) was “slightly shortened and 20.29 ± 4.18 sec”. For the same compound, the “Withdrawal latency time, Before appln.” value (hind-limb of rats; [2]) was 30 ± 0 s, the “Withdrawal latency time, One hour after appln.” value (hind-limb of rats; [3]) was “not affected significantly and 30 ± 0 sec” and the “Withdrawal latency time, Before appln.” value (hind-limb of rats; [3]) was 30 ± 0 s. The “Withdrawal latency time, One hour after appln.” value (hind-limb of rats; [4]) was “not affected significantly and 27.28 ± 2.35 sec” and the “Withdrawal latency time, Before appln.” value (hind-limb of rats; [4]) was 30 ± 0 s.
